Test results reported in patent US8048924B2, “Methods and compositions employing 4-aminophenylacetic acid compounds” (Biocon Limited, priority 2001, dated 2011).

Experiment: Metabolism of APAZA and sulfasalazine following oral delivery to rats (urine and feces, HPLC)
Details: rat
Procedure: The degradation of the APAZA™ therapeutic agent (5-(4-carboxymethyl-phenylazo)-2-hydroxy-benzoic acid), and sulfasalazine (used as a control) and the generation of their metabolites when these compounds were orally dosed to rats were measured to be able to confirm that both the APAZA™ therapeutic agent and sulfasalazine undergo bacterial azo reduction and yield their metabolites, 5-aniinosalicylic acid (5-ASA) and sulfapyridine for sulfasalazine, 5-aminosalicylic acid (5-ASA) and 4-aminophenyl acetic acid (4-APAA) for the APAZA™ therapeutic agent.
This experiment was performed to confirm that an azo compound, the APAZA™ therapeutic agent, undergoes a bacterial reduction process and yields its metabolites in in-vivo metabolism. The quantification of its metabolites was also carried out. Sulfasalazine, not part of the present invention, was used as a control since similar azo bond cleavage by bacteria occurs with it, which results in 5-aminosalicylic acid and sulfapyridine as its metabolites. Both the APAZA™ therapeutic agent and sulfasalzine were degraded and their metabolites were produced as expected.
A total of 8 rats were used for the experiment and methylcellulose was used as a vehicle. The dosage amount was 100 mg/kg per rat. […] Both urine and feces were collected over 4 days and analyzed by HPLC. […]

Compound: Nc1ccc(O)c(C(=O)O)c1 [5-ASA, 5-amino-2-hydroxy-benzoic acid, reference compound]
- conversion of 5-ASA in vivo: quickly converted to acetylated 5-ASA
